Laboratory results as given in paper PMC8595397, “Reproductive Regulation of PrRPs in Teleost: The Link Between Feeding and Reproduction” (Frontiers in Endocrinology, 2021).
Read-outs that look alike come from different tables or passages of the source. Ends that are not written are not given here.

How the values were obtained:
[1] = system: LHβ mRNA in grass carp pituitary cells; assay: Signal transduction: LHβ mRNA expression with inhibitors in pituitary cells; format: cell-based
[2] = system: grass carp pituitary cells; assay: Signal transduction: LH release with inhibitors in pituitary cells; format: cell-based
[3] = system: GtHα mRNA in grass carp pituitary cells; assay: Signal transduction: GtHα mRNA expression with inhibitors in pituitary cells; format: cell-based
[4] = system: PrRP-Rs mRNA in grass carp brain cells; assay: PrRP-Rs mRNA expression in primary brain cells; format: cell-based; details: E2 1 μM, 24 h
Method: (§1) In brief, 13-14 grass carp brains were obtained and separated into the required brain areas including telencephalon, hypothalamus, and optic tectum, which were cut into 0.8 mm tissue fragments using […] tissue chopper (Cavey laboratory). After washing with Minimum Essential Medium (MEM, Gibco) three times, the brain fragments were incubated with 6 mg/ml trypsin (Sigma) dissolved in the medium under the conditions of 28°C, 48 rpm for 30 min. […] The brain fragments were filtered using a 30 μm filter screen and cultured into a 24-well cell culture plate under 28°C, 5% CO2 concentration. […] After another 2 days of incubation, a single-dose E2 treatment (1 μM) was performed on the cells. […] The β-actin mRNA was used as an internal parameter to eliminate random error. Therefore, genes mRNA data as well as LH release data were easily converted as a percentage of the mean value (as “% Ctrl”). The data presented (as Mean ± SEM) collected results from 4-8 parallel group experiments and analyzed with ANOVA.

prepubertal zebrafish = system: prepubertal zebrafish; design: method as in PMID 22689988; details: cited from earlier work
[5] = system: PrRPs, GnRH2 and GnRH3 mRNA in grass carp brain cells; assay: PrRPs and GnRH mRNA expression in primary brain cells; format: cell-based; details: E2 1 μM, 24 h
Method: as §1

PrRP-R2a = target: T1, PrRP-R2a (Ctenopharyngodon idella, UniProt A0A4V1HW94); assay: cell-based; design: species or system grass carp (Ctenopharyngodon idellus)
T1 sequence (A0A4V1HW94 1-370): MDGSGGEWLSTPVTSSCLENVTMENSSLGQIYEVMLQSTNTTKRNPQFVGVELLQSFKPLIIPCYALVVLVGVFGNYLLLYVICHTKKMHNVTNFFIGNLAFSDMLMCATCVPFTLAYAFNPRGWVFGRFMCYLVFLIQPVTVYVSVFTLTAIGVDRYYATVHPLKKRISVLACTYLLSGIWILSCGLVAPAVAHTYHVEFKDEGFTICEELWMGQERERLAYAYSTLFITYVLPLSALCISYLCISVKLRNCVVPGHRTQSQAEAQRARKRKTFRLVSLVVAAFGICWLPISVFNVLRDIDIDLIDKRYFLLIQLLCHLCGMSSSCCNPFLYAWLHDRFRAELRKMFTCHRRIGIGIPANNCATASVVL

PrRP-R1b = target: T2, PrRP-R1b (Ctenopharyngodon idella, UniProt A0A4P9NKE2); assay: cell-based; design: species or system grass carp (Ctenopharyngodon idellus)
T2 sequence (A0A4P9NKE2 1-377): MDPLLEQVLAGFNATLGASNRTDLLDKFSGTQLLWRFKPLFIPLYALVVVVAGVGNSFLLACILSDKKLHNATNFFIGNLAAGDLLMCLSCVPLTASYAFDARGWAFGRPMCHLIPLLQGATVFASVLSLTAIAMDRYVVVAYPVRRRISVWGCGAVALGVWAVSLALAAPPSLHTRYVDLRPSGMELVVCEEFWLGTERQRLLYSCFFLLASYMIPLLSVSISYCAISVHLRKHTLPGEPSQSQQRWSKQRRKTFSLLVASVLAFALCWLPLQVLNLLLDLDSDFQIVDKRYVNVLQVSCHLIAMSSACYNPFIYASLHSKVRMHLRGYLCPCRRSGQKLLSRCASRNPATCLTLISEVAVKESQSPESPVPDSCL

PrRP-R1a = target: T3, PrRP-R1a (Ctenopharyngodon idella, UniProt A0A4P9NKE7); assay: cell-based; design: species or system grass carp (Ctenopharyngodon idellus)
T3 sequence (A0A4P9NKE7 1-371): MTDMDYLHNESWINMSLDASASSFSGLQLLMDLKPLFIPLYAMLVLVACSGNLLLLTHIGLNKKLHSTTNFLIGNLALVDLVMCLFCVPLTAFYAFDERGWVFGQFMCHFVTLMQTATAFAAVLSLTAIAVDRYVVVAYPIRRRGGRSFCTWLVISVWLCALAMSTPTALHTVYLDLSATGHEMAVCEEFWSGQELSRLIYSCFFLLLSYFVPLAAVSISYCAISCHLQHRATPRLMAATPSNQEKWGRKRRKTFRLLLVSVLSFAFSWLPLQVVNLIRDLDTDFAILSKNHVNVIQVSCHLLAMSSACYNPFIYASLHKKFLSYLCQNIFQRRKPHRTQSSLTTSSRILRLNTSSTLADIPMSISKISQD

hPrRPR = target: T4, hPrRPR (Homo sapiens, UniProt P49683); assay: NFAT-luc reporter assay, functional expression of hPrRPR in HEK-293T cells; format: cell-based
T4 construct: the full-length open reading frame (ORF) of human PrRP receptor (hPrRPR); expressed in transfected cells; host or cells: HEK-293T
T4 sequence (P49683 1-370): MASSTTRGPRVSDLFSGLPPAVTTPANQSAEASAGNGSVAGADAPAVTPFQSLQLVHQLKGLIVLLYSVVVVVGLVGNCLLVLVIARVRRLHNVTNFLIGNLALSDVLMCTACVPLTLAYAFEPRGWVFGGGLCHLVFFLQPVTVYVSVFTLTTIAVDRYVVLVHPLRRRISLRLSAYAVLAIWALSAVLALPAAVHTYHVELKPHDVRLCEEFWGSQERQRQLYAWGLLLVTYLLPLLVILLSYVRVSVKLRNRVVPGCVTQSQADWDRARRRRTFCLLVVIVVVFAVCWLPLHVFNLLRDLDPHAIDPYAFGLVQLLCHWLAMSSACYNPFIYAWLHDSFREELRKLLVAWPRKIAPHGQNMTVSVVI

[6] = sheet prrp1, block PKA, PrRP1 1 μM, MDL12330A 20 μM, H89 20 μM, 24 h, mean
[7] = sheet prrp2, block r2-8, PrRP2 1 μM, MDL12330A 20 μM, H89 20 μM, 24 h, mean
[8] = PrRP1 or PrRP2 1 μM, MDL12330A 20 μM, H89 20 μM, U73122 10 μM, GF109203X 20 μM, 2-APB 100 μM, nifedipine 10 μM, calmidazolium 1 μM, KN62 5 μM
[9] = sheet prrp1, block Nifedipine, CMZ, KN62 (r33-40), PrRP1 1 μM, nifedipine 10 μM, calmidazolium 1 μM, KN62 5 μM, 24 h, mean
[10] = sheet prrp1, block r21-30, PrRP1 1 μM, U73122 10 μM, 2-APB 100 μM, KN62 5 μM, nifedipine 10 μM, 24 h, mean
[11] = sheet prrp2, block r27-32, PrRP2 1 μM, CMZ 1 μM, KN62 5 μM, 24 h, mean
[12] = sheet prrp1, block r21-32, PrRP1 1 μM, U73122 10 μM, 2-APB 100 μM, KN62 5 μM, nifedipine 10 μM, calmidazolium 1 μM, 24 h, mean
[13] = sheet prrp2, block r25-30, PrRP2 1 μM, CMZ 1 μM, KN62 5 μM, 24 h, mean
[14] = sheet prrp1, block PKC (r14-19), PrRP1 1 μM, U73122 10 μM, GF109203X 20 μM, 24 h, mean
[15] = sheet prrp2, block r10-15, PrRP2 1 μM, U73122 10 μM, GF109203X 20 μM, 24 h, mean
[16] = HEK-293T, NFAT-luc reporter, 24 h, 37°C, GraphPad Prism 7, read-out: EC50, hPrRPR

NCCOB(c1ccccc1)c1ccccc1 [2-APB]
LHβ mRNA expression [1]: 7.49 % Ctrl
effect on PrRPs-induced LH secretion and mRNA expression (in words) [2]: could also block PrRPs-induced LH secretion and mRNA expression
GtHα mRNA expression [3]: 30.7224 % Ctrl

C[C@]12CC[C@@H]3c4ccc(O)cc4CC[C@H]3[C@@H]1CC[C@@H]2O [E2, seventeen β-estradiol]
four PrRP-Rs mRNA expression (in words) [4]: significantly induced
prrp1a mRNA expression (CTR = 1) ([4]; mean): 2.26
prrp1b mRNA expression (CTR = 1) ([4]; mean): 2.14
prrp2a mRNA expression (CTR = 1) ([4]; mean): 1.37
prrp2b mRNA expression (CTR = 1) ([4]; mean): 2.25
expression of key genes involved in reproduction (GnRH3, Kiss2, and Tac3) (in words) (prepubertal zebrafish): enhanced the expression of the key genes involved in reproduction
GnRH3 mRNA expression (in words) [5]: significantly induce
PrRP1 mRNA expression (in words) [5]: significantly induce
gnrh3 mRNA expression (CTR = 1) ([5]; mean): 2.33
prrp1 mRNA expression (CTR = 1) ([5]; mean): 1.32

CN(C)CCCn1cc(C2=C(c3c[nH]c4ccccc34)C(=O)NC2=O)c2ccccc21 [GF109203X]
LHβ mRNA expression [1]: 101.639 % Ctrl
effect on PrRPs-induced LH secretion and mRNA expression (in words) [2]: could also block PrRPs-induced LH secretion and mRNA expression
GtHα mRNA expression [3]: 66.101 % Ctrl

O=S(=O)(NCCNC/C=C/c1ccc(Br)cc1)c1cccc2cnccc12 [H89]
LHβ mRNA expression [1, 6]: 92.1677 % Ctrl
LHβ mRNA expression [1, 7]: 65.1638 % Ctrl
effect on PrRPs-induced LH secretion and mRNA expression (in words) [2, 8]: could be blocked by co-treatment
GtHα mRNA expression [3, 6]: 38.3512 % Ctrl
GtHα mRNA expression [3, 7]: 38.3512 % Ctrl

CN([C@@H](Cc1ccc(OS(=O)(=O)c2cccc3cnccc23)cc1)C(=O)N1CCN(c2ccccc2)CC1)S(=O)(=O)c1cccc2cnccc12 [KN62]
LHβ mRNA expression [1, 9]: 112.35 % Ctrl
LHβ mRNA expression [1, 10]: 112.35 % Ctrl
LHβ mRNA expression [1, 11]: 112.35 % Ctrl
effect on PrRPs-induced LH secretion and mRNA expression (in words) [2, 8]: could also block PrRPs-induced LH secretion and mRNA expression
GtHα mRNA expression [3, 12]: 119.519 % Ctrl
GtHα mRNA expression [3, 13]: 119.519 % Ctrl

Cl.c1ccc(C2CCCC2NC2=NCCCCCCCCCCC2)cc1 (centres unmarked) [MDL12330A]
LHβ mRNA expression [1, 6]: 19.5731 % Ctrl
LHβ mRNA expression [1, 7]: 52.4857 % Ctrl
effect on PrRPs-induced LH secretion and mRNA expression (in words) [2, 8]: could be blocked by co-treatment
GtHα mRNA expression [3, 6]: 33.647 % Ctrl
GtHα mRNA expression [3, 7]: 33.647 % Ctrl

COc1ccc2c(c1)CC[C@@H]1[C@@H]2CC[C@]2(C)[C@@H](NCCCCCCN3C(=O)C=CC3=O)CC[C@@H]12 [U73122]
LHβ mRNA expression [1, 14]: 16.4413 % Ctrl
LHβ mRNA expression [1, 10]: 16.4413 % Ctrl
LHβ mRNA expression [1, 15]: 16.4413 % Ctrl
effect on PrRPs-induced LH secretion and mRNA expression (in words) [2, 8]: could also block PrRPs-induced LH secretion and mRNA expression
GtHα mRNA expression [3, 14]: 19.2973 % Ctrl
GtHα mRNA expression [3, 12]: 19.2973 % Ctrl
GtHα mRNA expression [3, 15]: 19.2973 % Ctrl

Clc1ccc(C(c2ccc(Cl)cc2)n2cc[n+](CC(OCc3ccc(Cl)cc3Cl)c3ccc(Cl)cc3Cl)c2)cc1 (centres unmarked) [calmidazolium]
LHβ mRNA expression [1, 9]: 13.098 % Ctrl
LHβ mRNA expression [1, 11]: 13.098 % Ctrl
effect on PrRPs-induced LH secretion and mRNA expression (in words) [2, 8]: could also block PrRPs-induced LH secretion and mRNA expression
GtHα mRNA expression [3, 12]: 36.6785 % Ctrl
GtHα mRNA expression [3, 13]: 48.844 % Ctrl

COC(=O)C1=C(C)NC(C)=C(C(=O)OC)C1c1ccccc1[N+](=O)[O-] [nifedipine]
LHβ mRNA expression [1, 9]: 48.7223 % Ctrl
LHβ mRNA expression [1, 10]: 48.7223 % Ctrl
LHβ mRNA expression ([1]; sheet prrp2, block r18-23, PrRP2 1 μM, 2-APB 100 μM, nifedipine 10 μM, 24 h, mean): 48.7223 % Ctrl
effect on PrRPs-induced LH secretion and mRNA expression (in words) [2, 8]: could also block PrRPs-induced LH secretion and mRNA expression
GtHα mRNA expression [3, 12]: 77.477 % Ctrl
GtHα mRNA expression ([3]; sheet prrp2, block r17-22, PrRP2 1 μM, 2-APB 100 μM, nifedipine 10 μM, 24 h, mean): 72.5728 % Ctrl

DPNIDAVWYKGRGIRPVGRF-NH2 [PrRP2]
EC50 (PrRP-R2a): 78.9 nM
EC50 (PrRP-R1b): 615 nM
EC50 (PrRP-R1a): 3160 nM
EC50 (hPrRPR; [16]): 52.4 nM

SPEIDPFWYVGRGVRPIGRF-NH2 [PrRP1]
EC50 (PrRP-R2a): 720 nM
EC50 (PrRP-R1b): 192 nM
EC50 (PrRP-R1a): 85.3 nM
EC50 (hPrRPR): 182 nM

TPDINPAWYASRGIRPVGRF-NH2 [hPrRP]
EC50 (PrRP-R2a): 940 nM
EC50 (PrRP-R1b): 2180 nM
EC50 (PrRP-R1a): 1110 nM
EC50 (hPrRPR; [16]): 191 nM
